Where no end group is shown, it is not given here.
Assays:
[1] = tested on: healed wound erythema, melanin pigmentation; experiment: Clinical effects of TB4 in vivo (erythema, pigmentation)
Excerpt: There was not post-inflammatory erythema and hyperpigmentation. Frequently, the skin color was normal and not the expected deep red-purple with brown coloration that would take months to resolve on the leg.
Another effect seen is the reduction of melanin pigmentation on the areas of treatment with TB4.

[2] = tested on: endothelial cells; experiment: MTT (tetrazolium) endothelial cell proliferation assay; format: cell-based; settings: 10 ng/ml; 4 hours and 24 hours
Procedure: The effects of TB4 and TA1 on endothelial cell proliferation were determined using a MTT (tetrazolium) assay. The results are shown in FIG. 2 for 4 hours and 24 hours and for three concentrations of these peptides, 10 ng/ml, 100 ng/ml, and 1000 ng/ml. […] At a concentration of 10 ng/ml, TB4 and TA1 maximally stimulated cell proliferation approximately 2-fold and 3-fold over that of the control, respectively.

[3] = tested on: NHVEC; experiment: scratch wound closure assay; format: cell-based, human; settings: 10 ng/ml, scratched confluent monolayer
Procedure: To examine the effects of TB4 and TA1 (10 ng/ml) on NHVEC migration, a scratch would closure assay was used.

[4] = tested on: venous stasis ulceration; experiment: Clinical course of Patient 1, shin ulcer; format: in vivo, human
Excerpt: The injury started with a bruise on the left shin, but approximately seven weeks later the area started to get erythematous. The patient was sent by the general internist to the local hospital wound healing center, where the wound was debrided and Silvadene cream was used. However, the patient was not progressing well and grafting was considered. […] The underlying problem was venous stasis with the development of ulceration secondary to minor trauma. The ulcer was about 3.0 cm by 1.0 cm in size with a 1-cm rim of mild erythema. […] The patient was given a preparation containing TA1 to be used twice daily to the small 4 mm area.
The treatment with TA1 was continued for another week twice daily.
At this point, treatment was changed to a preparation containing TB4 to be applied twice daily to the entire ulcer.
After the entire ulcer had been treated for seven days with TB4 twice daily, it was noted that the size of the ulcer was starting to reduce. The wound center physician was concerned about infection (cellulitis around the ulcer). The patient was placed on oral antibiotics for 10 days. However, when the surrounding erythema was palpated, there was no tenderness. The wound appeared to be repairing and increasing the vascular flow to the ulcer base and surrounding skin. The patient felt that after treating the entire for seven days they improved by 40%. The patient was given more preparation containing TB4 for the next week. The internist felt that the patient should not undergo surgery for grafting due to cardiac problems in view of the improvement in the wound.

[5] = tested on: ulcerations of fingers secondary to burns, diabetes mellitus; experiment: Clinical course of Patient 2, finger ulcerations; format: in vivo, human
Procedure: The glucose levels of the patient were not kept under control. The patient developed heat burns with blistering and erosions on the patient's fingers. The ulcers are cleansed and Silvadene cream is used for wound healing, which usually takes 2-4 weeks. Occasionally, systematic antibiotics are given.
The patient was seen after having burned the distal phalanx of the left middle finger with a hairdryer 10 days before. The patient had taken some leftover Ceftin 250 mg twice daily and has used Silvadene cream twice daily for the 10 days, but the ulcer would not heal. The ulcer was debrided and the patient was given a preparation containing TA5 to use on the ulcer base twice daily. This ulcer was on the lateral thenar side of the left middle finger.
Approximately six weeks later, the patient had developed new ulcerations of the right index finger on the palmar-ventral side (5 days), and two ulcerations on the right middle finger on the distal digit, lateral thenar side (5 days) and the second digit on the dorsal side (2 weeks history). These ulcerations had developed after the patient had handled hot items. Dicloxacillin (500 mg twice daily) was given for 10 days. The patient was given TB4 wound healing preparation to be used twice daily to the ulcerations.

[6] = tested on: normal human vascular endothelial cells (NHVEC); experiment: Boyden chamber migration assay; format: cell-based; settings: for cell migration over migration in the presence of media alone / migration response compared to positive controls VEGF, PDGF, FGF: 100 ng/ml; for concentration of maximal effect on migration: dose response
Procedure: The effects of TB4 and TA1 on endothelial cell migration were determined. To investigate the possibility that these peptides effect the migration of normal human vascular endothelial cells (NHVEC) in vitro, a Boyden chamber migration assay was performed.
In the experiments of Table 1 and FIG. 1, normal human […] endothelial cells are used at 5×10^4 cells per well. The wells are coated with 100 μg/ml […] Type IV.

[7] = tested on: full thickness punch wounds in rat skin; experiment: Wound healing in vivo, full thickness punch wounds
Procedure: To study the effect of TA1 on wound healing in vivo, full thickness punch wounds were made in rat skin and treated with TA1 topically or by intraperitoneal injection with a seven-day study interval. For topical treatment, 5 μg of TA1 was applied in 50 μl saline on injury date and 48 hours post-injury. For intraperitoneal treatment, 60 μg of TA1 was administered in 300 μl saline on injury date and then every other day.

[8] = tested on: chronic wounds; experiment: Pilot study in humans with chronic wounds, collagen synthesis; format: in vivo, human; settings: 20 volunteers, biopsies at baseline and two months, preliminary results
Procedure: A pilot study of TA1 and TA5 was performed in humans with 20 volunteers with chronic wounds. Skin biopsies were taken at the baseline and at two months, subjected to histological analysis, immunohistological analysis, and objective and subjective observation. Immunohistochemistry endpoints were epidermal differentiation, epidermal proliferation, and markers of inflammation and were assayed by using anti-CD3 monoclonal antibody.

[9] = Isoelectric point of peptide; format: physicochemical
[10] = 10 μg/ml, 5×10^4 cells per well

| Substance | maximal stimulation of cell proliferation over that of the control [2] | migration of cells into the wounded area compared to media alone [3] | Cell Number per HPF, Chamber 1 ([6]; 0.1 μg/ml) [per HPF] | Cell Number per HPF, Chamber 2 ([6]; 0.1 μg/ml) [per HPF] | Cell Number per HPF, Chamber 3 ([6]; 0.1 μg/ml) [per HPF] | Cell Number per HPF, Mean ([6]; 0.1 μg/ml) [per HPF] | cell migration over migration in the presence of media alone [6] | migration response compared to positive controls VEGF, PDGF, FGF [6] | Cell Number per HPF, Chamber 1 ([6]; 0.5 μg/ml) [per HPF] | Cell Number per HPF, Chamber 2 ([6]; 0.5 μg/ml) [per HPF] | Cell Number per HPF, Chamber 3 ([6]; 0.5 μg/ml) [per HPF] | Cell Number per HPF, Mean ([6]; 0.5 μg/ml) [per HPF] | Cell Number per HPF, Chamber 1 ([6]; 1 μg/ml) [per HPF] | Cell Number per HPF, Chamber 2 ([6]; 1 μg/ml) [per HPF] | Cell Number per HPF, Chamber 3 ([6]; 1 μg/ml) [per HPF] | Cell Number per HPF, Mean ([6]; 1 μg/ml) [per HPF] | Cell Number per HPF, Chamber 1 ([6]; 5 μg/ml) [per HPF] | Cell Number per HPF, Chamber 2 ([6]; 5 μg/ml) [per HPF] | Cell Number per HPF, Chamber 3 ([6]; 5 μg/ml) [per HPF] | Cell Number per HPF, Mean ([6]; 5 μg/ml) [per HPF] | also measured |
| --- | --- | --- | --- | --- | --- | --- | --- | --- | --- | --- | --- | --- | --- | --- | --- | --- | --- | --- | --- | --- | --- |
| Ac-ANKGQAPGEAMKPSFLKEKKEVVERSKEEEGPAKMNLVIEMPKD (Ac-ANKGQAPGEAMKPSFLKEKKEVVERSKEEEGPAKMNLVIEMPKD) [TB4] | approximately 2 fold | significantly increased | 18 | 12 | 26 | 19 | significantly enhanced cell migration | heightened responses | 33 | 39 | 50 | 41 | 45 | 47 | 63 | 52 | 55 | 65 | 57 | 59 | clinical intensity of brown melasma, lentigines, post-inflammatory hyperpigmentation and ephelides ([1]; areas of treatment): definite reduction in the clinical intensity; effect on erythema of the healed wound ([1]; e.g. on the shin): reducing the erythema of the healed wound; erythema of poikiloderma vasculare of the neck secondary to chronic sun exposure ([1]; evaluation not continued): erythema was reducing; size of the ulcer ([4]; after another seven days (14 days), peripheral islands of healing): size of the ulcer was the same; improvement felt by the patient ([4]; after treating entire ulcer for seven days): 40%; status of ulcer ([4]; another seven days after FIG. 11): almost completely closed; status of ulcer ([4]; another two weeks, once daily, FIG. 12): no ulceration; ulcers cleared ([5]; another five days (12 days)): approximately 90%; improvement in the ulcerations ([5]; one week, twice daily, dicloxacillin also given): 70-80%; Cell Number per HPF, Chamber 2 ([6]; 10 μg/ml): 77 per HPF; Cell Number per HPF, Chamber 3 ([6]; 10 μg/ml): 66 per HPF; Cell Number per HPF, Mean ([6]; 10 μg/ml): 71 per HPF; Cell Number per HPF, Chamber 1 [6, 10]: 70 per HPF; concentration of maximal effect on migration [6]: 100 ng/mL |
| Ac-SDAAVDTSSEITTKDLKEKKEVVEEAEN [TA1] | ~3 fold | significantly increased | 38 | 45 | 33 | 39 | significantly enhanced cell migration | heightened responses | 52 | 53 | 57 | 54 | 64 | 69 | 43 | 59 | 35 | 64 | 72 | 57 | 4-day post-injury findings: capillary ingrowth and collagen deposition ([7]; 4-day post-injury): increased capillary ingrowth and collagen deposition; 4-day post-injury findings: reepithelialization, wound contraction, keratinocyte migration ([7]; 4-day post-injury): accelerated reepithelialization, wound contraction, and keratinocyte migration; decrease in wound width versus normal saline control ([7]; intraperitoneal 60 μg, p 0.0001 four-day, p 0.08 seven-day): 42%±9%; decrease in gap size versus normal saline (NS) control ([7]; intraperitoneal 60 μg, p 0.0007 for four-day and seven-day results): 42%±9%; decrease in wound width versus normal saline (NS) control ([7]; topical 5 μg, p 0.0001 four and seven-day results): 15%; decrease in gap size versus normal saline (NS) control ([7]; topical 5 μg, significant for seven-day results (p 0.04)): 18%±12%; stimulating collagen synthesis compared with tretinoin and vitamin C [8]: more effective in stimulating collagen synthesis than tretinoin or vitamin C; isoelectric point [9]: 4.1; status of ulcer ([4]; after 1 week, twice daily to the small 4 mm area): improvement was noted; deeper 4 mm area of the ulceration ([4]; after 2 weeks, twice daily): now level with the rest of the ulcer; Cell Number per HPF, Chamber 2 ([6]; 10 μg/ml): 55 per HPF; Cell Number per HPF, Chamber 3 ([6]; 10 μg/ml): 66 per HPF; Cell Number per HPF, Mean ([6]; 10 μg/ml): 57 per HPF; Cell Number per HPF, Chamber 1 [6, 10]: 51 per HPF; concentration of maximal effect on migration [6]: 100 ng/mL |
| KKLKKEENPLELKEKLKEKKNPLPSKEEEKASPFDKI -T-E-T-P-D-M-S [TA5] | – | – | – | – | – | – | – | – | – | – | – | – | – | – | – | – | – | – | – | – | stimulating collagen synthesis compared with tretinoin and vitamin C [8]: more effective in stimulating collagen synthesis than tretinoin or vitamin C; new shallow ulceration resolved ([5]; one week, twice daily): approximately 70%; status of ulcer, left middle finger ([5]; one week, twice daily on ulcer base): dramatic improvement of the ulcer base; older, deeper ulceration healing ([5]; two weeks, twice daily): healing more rapidly than previously |
| VEGF [reference compound] | – | – | – | – | – | – | – | – | – | – | – | – | – | – | – | – | – | – | – | – | Cell Number per HPF, Chamber 1 ([6]; 10 ng/ml, positive control): 88 per HPF; Cell Number per HPF, Chamber 2 ([6]; 10 ng/ml, positive control): 95 per HPF; Cell Number per HPF, Chamber 3 ([6]; 10 ng/ml, positive control): 97 per HPF; Cell Number per HPF, Mean ([6]; 10 ng/ml, positive control): 93 per HPF |
